Source: US8524194B2, “Radiolabelled MMP selective compounds” (Academisch Medisch Centrum Bij de Universiteit van Amsterdam, priority 2008, dated 2013)

Tests used:
MMP-1 = biological target: T1, MMP-1 (Homo sapiens, UniProt P03956); test: in vitro MMP inhibition, MMP-1; assay type: biochemical; conditions: preliminary results
T1 sequence (P03956 100-469): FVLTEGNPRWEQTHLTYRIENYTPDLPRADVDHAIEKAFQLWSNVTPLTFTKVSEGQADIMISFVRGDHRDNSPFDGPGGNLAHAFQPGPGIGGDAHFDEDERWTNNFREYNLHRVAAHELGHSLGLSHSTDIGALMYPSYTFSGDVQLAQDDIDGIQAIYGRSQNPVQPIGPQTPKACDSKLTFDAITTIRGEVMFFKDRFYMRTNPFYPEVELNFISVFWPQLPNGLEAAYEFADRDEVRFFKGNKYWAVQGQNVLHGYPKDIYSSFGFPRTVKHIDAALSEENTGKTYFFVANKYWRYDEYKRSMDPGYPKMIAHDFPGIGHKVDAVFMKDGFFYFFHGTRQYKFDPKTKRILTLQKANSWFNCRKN

MMP-2 = biological target: T2, MMP-2 (Homo sapiens, UniProt P08253); test: in vitro MMP inhibition, MMP-2; assay type: biochemical; conditions: preliminary results
T2 sequence (P08253 110-660): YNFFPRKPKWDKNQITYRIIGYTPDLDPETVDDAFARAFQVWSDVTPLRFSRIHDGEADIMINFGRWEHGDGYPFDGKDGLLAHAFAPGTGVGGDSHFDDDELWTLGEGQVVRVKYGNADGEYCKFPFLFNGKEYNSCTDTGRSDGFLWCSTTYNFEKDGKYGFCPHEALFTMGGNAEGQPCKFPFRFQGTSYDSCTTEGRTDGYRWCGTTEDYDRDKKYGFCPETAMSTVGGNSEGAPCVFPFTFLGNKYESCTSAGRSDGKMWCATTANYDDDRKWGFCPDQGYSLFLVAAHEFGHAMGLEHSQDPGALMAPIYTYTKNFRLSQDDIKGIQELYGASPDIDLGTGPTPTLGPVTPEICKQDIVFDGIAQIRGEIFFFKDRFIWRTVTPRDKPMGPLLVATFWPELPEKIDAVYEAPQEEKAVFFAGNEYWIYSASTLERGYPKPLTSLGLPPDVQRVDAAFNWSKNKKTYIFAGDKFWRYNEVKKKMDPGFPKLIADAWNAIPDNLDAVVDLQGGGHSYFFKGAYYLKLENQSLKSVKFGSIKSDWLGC

MMP-9 = MMP-9 (Homo sapiens, UniProt P14780); test: in vitro MMP inhibition, MMP-9; assay type: biochemical; conditions: preliminary results
Chain of MMP-9 (P14780 94-707, species assumed): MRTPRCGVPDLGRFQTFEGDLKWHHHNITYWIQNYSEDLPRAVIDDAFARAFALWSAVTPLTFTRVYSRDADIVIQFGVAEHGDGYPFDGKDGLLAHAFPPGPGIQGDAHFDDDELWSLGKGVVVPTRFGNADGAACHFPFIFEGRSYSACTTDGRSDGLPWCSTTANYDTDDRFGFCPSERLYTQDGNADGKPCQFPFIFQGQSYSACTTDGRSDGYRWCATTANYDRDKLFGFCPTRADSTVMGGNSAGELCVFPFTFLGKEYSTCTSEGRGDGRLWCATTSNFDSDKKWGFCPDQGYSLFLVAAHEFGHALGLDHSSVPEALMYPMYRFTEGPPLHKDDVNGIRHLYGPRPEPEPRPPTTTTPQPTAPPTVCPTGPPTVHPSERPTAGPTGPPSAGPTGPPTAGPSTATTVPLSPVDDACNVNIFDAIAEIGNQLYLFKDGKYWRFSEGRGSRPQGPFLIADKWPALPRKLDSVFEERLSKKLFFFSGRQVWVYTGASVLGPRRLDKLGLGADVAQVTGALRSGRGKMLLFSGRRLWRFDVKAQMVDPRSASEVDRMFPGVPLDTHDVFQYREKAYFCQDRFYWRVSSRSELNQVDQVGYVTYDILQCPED

[1] = tissue biodistribution after intravenous administration; assay type: in vivo, CL57/BL6 mice; conditions: i.v.
Method: Because the in vitro studies gave promising results, preliminary in vivo studies were performed using the CL57/BL6 mice (8 weeks old). The tissue distribution of [^123I]8 (which is representative for the radioisotopes with alternative halogens), after intravenous administration, was determined at three time points. […] This is regular pharmacokinetic behaviour of a radiotracer.
The extended biodistribution studies were performed using the CL57/BL6 mice (8 weeks old). Here the tissue distribution of [^123I]8, after intravenous administration was determined at 9 time points (up to 24 hours p.i.).

[2] = system: atherosclerotic plaques (MMP-2); test: binding to atherosclerotic plaques in the aortic sinus, storage phosphor imaging; assay type: in vivo; conditions: ApoE−/− mice on Western Type diet, i.v., three hours after injection, FIG. 3
Method: Four month old ApoE−/− mice were given a Western Type diet (cat nr. 4021.06; Arie Blok Diervoeding, Woerden, the Netherlands), during one month to stimulate atherogenesis. On the last day of the experiment the radiolabeled MMP-2 antagonist was given by intravenous injection. Three hours after injection, the mice were harvested and the aortic sinus area was analysed overnight using a storage phosphor imaging technique for binding of the MMP2 antagonist.

[3] = CL57/BL6 mice 8 weeks old, three time points, FIG. 1

| Compound | IC50 (MMP-1) [nM] | IC50 (MMP-2) [nM] | IC50 (MMP-9) [nM] | liver uptake [1, 3] | route of excretion [1, 3] | thyroid uptake (de-iodination in vivo) [1, 3] | re-uptake in liver and kidney ([1]; CL57/BL6 mice, 9 time points up to 24 hours p.i., FIG. 2) | radioactivity in the aortic sinus [2] |
| --- | --- | --- | --- | --- | --- | --- | --- | --- |
| O=C(O)CN(CC(=O)NO)S(=O)(=O)c1ccc(Oc2ccccc2)cc1 [Compound 6a, {[4-Phenoxy-benzenesulphonyl]-hydroxycarbamoylmethyl-amino}-acetic acid] | 1670 ± 980 | 1.89 ± 1.11 | 4.31 ± 2.06 | – | – | – | – | – |
| O=C(O)CN(CC(=O)NO)S(=O)(=O)c1ccc(Oc2ccc(F)cc2)cc1 [Compound 6b, {[4-(4-Fluoro-phenoxy)-benzenesulphonyl]-hydroxycarbamoylmethyl-amino}-acetic acid] | 4690 ± 2220 | 0.13 ± 0.03 | 0.27 ± 0.15 | – | – | – | – | – |
| O=C(O)CN(CC(=O)NO)S(=O)(=O)c1ccc(Oc2ccc([123I])cc2)cc1 [[^123I]8, {[4-(4-[^123I]Iodophenoxy)-benzenesulphonyl]-hydroxycarbamoylmethyl-amino}-acetic acid] | – | – | – | taken up intensively into the liver | excreted mainly via the urinary tract | very low uptake in the thyroid | A little re-uptake was observed in the liver and kidney after 3 and 6 hours respectively | Increased radioactivity was observed in the aortic sinus of the heart |

Continued, in another order:

| IC50 (MMP-1) [nM] | IC50 (MMP-2) [nM] | IC50 (MMP-9) [nM] | liver uptake [1, 3] | route of excretion [1, 3] | thyroid uptake (de-iodination in vivo) [1, 3] | Compound | re-uptake in liver and kidney ([1]; CL57/BL6 mice, 9 time points up to 24 hours p.i., FIG. 2) | radioactivity in the aortic sinus [2] |
| --- | --- | --- | --- | --- | --- | --- | --- | --- |
| 910 ± 560 | 0.87 ± 0.4 | 1.95 ± 1.1 | – | – | – | O=C(O)CN(CC(=O)NO)S(=O)(=O)c1ccc(Oc2ccc(Br)cc2)cc1 [Compound 6d, {[4-(4-Bromo-phenoxy)-benzenesulphonyl]-hydroxycarbamoylmethyl-amino}-acetic acid] | – | – |
| 1320 ± 790 | 7.64 ± 1.43 | 1.61 ± 1.41 | – | – | – | O=C(O)CN(CC(=O)NO)S(=O)(=O)c1ccc(Oc2ccc(I)cc2)cc1 [Compound 6e, {[4-(4-Iodo-phenoxy)-benzenesulphonyl]-hydroxycarbamoylmethyl-amino}-acetic acid] | – | – |
